Measurements reported in US9090593B2, “Bicyclic compounds as Pim inhibitors” (AMGEN INC., priority 2010, dated 2015).
Structures can show the parent of a compound that is named as a salt. Where two headings read alike, the source gives them in different places.

Tests used:
[1] = target: T1, full length recombinant Pim-2 protein (Homo sapiens, UniProt Q9P1W9); test: Pim-2 enzyme assay (HTRF, phosphorylation of biotinylated-BAD (S112) peptide); assay type: biochemical
T1 construct: by full length recombinant Pim-1, Pim-2, or Pim-3 protein; hexahistidine tag followed by a thrombin cleavage site (N); made in house; host or cells: Sf9 (baculovirus) or E. coli (pET28)
T1 sequence (Q9P1W9 whole entry): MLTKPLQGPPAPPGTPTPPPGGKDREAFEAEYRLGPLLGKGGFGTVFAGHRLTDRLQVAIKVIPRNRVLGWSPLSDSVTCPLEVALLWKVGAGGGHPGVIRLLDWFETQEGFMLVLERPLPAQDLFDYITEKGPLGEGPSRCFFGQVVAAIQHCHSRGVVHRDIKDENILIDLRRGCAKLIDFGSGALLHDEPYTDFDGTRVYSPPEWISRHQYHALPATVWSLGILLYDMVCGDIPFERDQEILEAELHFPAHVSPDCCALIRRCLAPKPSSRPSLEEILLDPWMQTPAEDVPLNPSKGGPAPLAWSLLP
From the text: (§1) These cDNAs were used as templates in PCR reactions to produce full-length DNA clones of the PIMs. […] PCR products were digested with […] and EcoRI for Pim-1 and BamHI and EcoRI for Pim-2 and ligated into a modified baculovirus transfer vector (pFastBac1) cleaved with BamHI and EcoRI. For bacterial expression, the same cleaved PCR products encoding Pim-1 or Pim-2 were ligated into a modified E. coli expression vector pET28(a) cleaved with BamHI and EcoRI Amino-terminal hexahistidine tags followed by a thrombin cleavage site were previously added to the vectors using standard methods of molecular biology. Recombinant baculoviruses expressing Pim-1 or Pim-2 were made using standard methods (Fastbac manual, Invitrogen, Carlsbad, Calif.). Infection of Sf9 cells was done at an m.o.i. of greater than 5 for 24-48 h. Cells were harvested by centrifugation and frozen at −80 C. For E. coli expression, cells carrying pET28-His6-Th-Pim-1 or pET28-His6-Th-Pim-2 were picked from a single colony and grown o/n in LB media. The o/n culture was used to inoculate a 2 liter flask with 500 mL media. This was grown o/n and used to inoculate 15-20 liters of Terrific Broth in a New Brunswick Scientific fermentor. The E. coli were grown at 37° C. to and OD600>1.6. The temperature was dropped to 18° C. and o/n expression was induced with 0.5 mM IPTG. Cells were harvested by centrifugation and frozen at −80° C.
(§2) This step was repeated 3× and the resin was transferred to a 2.5 cm glass column. Ten column volumes of wash buffer (0.05 M HEPES, pH 8.0, 0.1 M NaCl, 0.01 M 2-mercaptoethanol, 10% (w/v) glycerol) were applied to the resin followed by 10 column volumes of elution buffer (0.05 M HEPES, pH 8.0, 0.25 M NaCl, 0.01 M 2-mercaptoethanol, 10% (w/v) glycerol, 0.1 M imidazole). Fractions were analyzed by SDS-PAGE and those containing the protein of interest were pooled and concentrated. The concentrated protein was applied to an Amersham Superdex 75 (XK 26/60) column equilibrated in 0.025 M Tris-HCl, pH 7.5, 0.1 M NaCl, 0.01 M 2-mercaptoethanol, 10% (w/v) glycerol. […] Fractions containing the monomeric protein of interest were pooled, concentrated to ˜2 mg/mL, and stored at −80° C.
(§3) The phosphorylation of biotinylated-BAD (S112) peptide by full length recombinant Pim-1, Pim-2, or Pim-3 protein was detected with streptavidin:Allophycocyanin (APC) conjugate and a europium (Eu) labeled antibody directed against phosphorylated-BAD (S112). […] The fluorescence is directly proportional to the amount of phosphorylated BAD peptide present in the reaction.
(§4) A reference compound was included on each assay plate in order to validate that plate; on one plate of every assay run, two additional reference compounds were included.
(§5) The final buffer conditions were as follows: 60 mM Hepes, pH 7.0, 0.05% BSA, 2 mM DTT. […] The reaction was stopped by the addition of 3 mM EDTA, and fluorescence was measured by an HTRF® Rubystar microplate reader. For each plate, percent of control (POC) values were calculated for each well. Values for the IC50 IP were estimated using a standard 4-parameter logistic model.

[2] = target: T2, full length recombinant Pim-1 protein (Homo sapiens, UniProt P11309); test: Pim-1 enzyme assay (HTRF, phosphorylation of biotinylated-BAD (S112) peptide); assay type: biochemical; settings: read-out: Pim_1_IC50
T2 construct: by full length recombinant Pim-1, Pim-2, or Pim-3 protein; hexahistidine tag followed by a thrombin cleavage site (N); made in house; host or cells: Sf9 (baculovirus) or E. coli (pET28)
T2 sequence (P11309 whole entry): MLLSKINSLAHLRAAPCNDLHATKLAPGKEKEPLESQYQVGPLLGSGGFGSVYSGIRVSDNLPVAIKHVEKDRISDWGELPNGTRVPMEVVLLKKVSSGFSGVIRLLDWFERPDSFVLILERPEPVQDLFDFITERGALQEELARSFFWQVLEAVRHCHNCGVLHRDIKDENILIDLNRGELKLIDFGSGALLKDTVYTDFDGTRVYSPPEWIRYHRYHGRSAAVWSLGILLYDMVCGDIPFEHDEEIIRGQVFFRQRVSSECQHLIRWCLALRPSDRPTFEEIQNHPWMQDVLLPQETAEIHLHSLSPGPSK
From the text: as §1, §2, §3, §4, §5

CC1CCCCN1c1nc(-c2ccc3[nH]cc(-c4cncc(O[C@@H]5CCCNC5)n4)c3c2)cs1 (mixture of isomers) [Example 303]
IC50 ([1]; read-out: Pim2_IC50): 0.733 µM | IC50 [2]: 158 nM

CC1CCCN(c2cnc(-c3ccc4[nH]cc(-c5cncc(O[C@@H]6CCCNC6)n5)c4c3)cn2)C1 (mixture of isomers) [Example 306]
IC50 ([1]; read-out: Pim2_IC50): 0.093 µM | IC50 [2]: 23 nM

O[C@@H]1CN(c2cncc(-c3n[nH]c4ccc(-c5c(F)cccc5F)cc34)n2)CC[C@@H]1O (single isomer, unassigned) [Example 249, cis-1-(6-(5-(2,6-difluorophenyl)-1H-indazol-3-yl)-2-pyrazinyl)-3,4-piperidinediol]
IC50 ([1]; read-out: Pim2_IC50): 0.269 µM | IC50 [2]: 32 nM

O[C@@H]1CN(c2cncc(-c3n[nH]c4ccc(-c5c(F)cccc5F)cc34)n2)CC[C@@H]1O (single isomer, unassigned) [Example 250, cis-1-(6-(5-(2,6-difluorophenyl)-1H-indazol-3-yl)-2-pyrazinyl)-3,4-piperidinediol]
IC50 ([1]; read-out: Pim2_IC50): 0.309 µM | IC50 [2]: 46 nM

Fc1cccc(F)c1-c1ccc2[nH]nc(-c3cncc(CC4CCCNC4)n3)c2c1 (single isomer, unassigned) [Example 273, 5-(2,6-difluorophenyl)-3-(6-(3-piperidinylmethyl)-2-pyrazinyl)-1H-indazole]
IC50 ([1]; read-out: Pim2_IC50): 0.287 µM | IC50 [2]: 70 nM

Fc1cccc(F)c1-c1ccc2[nH]nc(-c3cncc(CC4CCCNC4)n3)c2c1 (single isomer, unassigned) [Example 274, 5-(2,6-difluorophenyl)-3-(6-(3-piperidinylmethyl)-2-pyrazinyl)-1H-indazole]
IC50 ([1]; read-out: Pim2_IC50): 0.09 µM | IC50 [2]: 20 nM

CC(C)C1CCNCC1Oc1cncc(-c2n[nH]c3ccc(-c4c(F)cccc4F)cc23)n1 (single isomer, unassigned) [Example 394]
IC50 ([1]; read-out: Pim2_IC50): 0.203 µM | IC50 [2]: 30 nM

Fc1cccc(F)c1-c1ccc2[nH]nc(-c3cncc(SC4CCCNC4)n3)c2c1 (single isomer, unassigned) [Example 415]
IC50 ([1]; read-out: Pim2_IC50): 0.076 µM | IC50 [2]: 28 nM

Fc1cccc(F)c1-c1ccc2[nH]nc(-c3cncc(OC4C=CCNC4)n3)c2c1 (single isomer, unassigned) [Example 426]
IC50 ([1]; read-out: Pim2_IC50): 0.174 µM | IC50 [2]: 105 nM

Fc1cccc(F)c1-c1ccc2[nH]nc(-c3cncc(OC4CCNCC45CC5)n3)c2c1 (single isomer, unassigned) [Example 429]
IC50 ([1]; read-out: Pim2_IC50): 0.076 µM | IC50 [2]: 30 nM

Fc1cccc(F)c1-c1ccc2[nH]cc(-c3cncc(OC4CNCCC45CC5)n3)c2c1 (single isomer, unassigned) [Example 439]
IC50 ([1]; read-out: Pim2_IC50): 0.407 µM | IC50 [2]: 159 nM

CC1CNCC(Oc2cncc(-c3n[nH]c4ccc(-c5c(F)cccc5F)cc34)n2)C1 (single isomer, unassigned) [Example 468]
IC50 ([1]; read-out: Pim2_IC50): 0.196 µM | IC50 [2]: 70 nM

Fc1cccc(F)c1-c1ccc2[nH]nc(-c3cncc(Oc4cccnc4)n3)c2c1 [Example 246, 5-(2,6-difluorophenyl)-3-(6-(3-pyridinyloxy)-2-pyrazinyl)-1H-indazole]
IC50 ([1]; read-out: Pim2_IC50): 0.798 µM | IC50 [2]: 551 nM

c1ccc(Nc2ccc3[nH]nc(-c4cncc(O[C@H]5CNCCC56CC6)n4)c3c2)cc1 [Example 251, 3-(6-((4R)-6-azaspiro[25]oct-4-yloxy)-2-pyrazinyl)-N-phenyl-1H-indazol-5-amine bis(2,2,2-trifluoroacetate)]
IC50 ([1]; read-out: Pim2_IC50): 0.039 µM | IC50 [2]: 4 nM

Cn1nccc1-c1ccc2[nH]nc(-c3cncc(O[C@H]4CNCCC45CC5)n3)c2c1 [Example 252, 3-(6-((4R)-6-azaspiro[2.5]oct-4-yloxy)-2-pyrazinyl)-5-(1-methyl-1H-pyrazol-5-yl)-1H-indazole]
IC50 ([1]; read-out: Pim2_IC50): 0.121 µM | IC50 [2]: 70 nM

N#Cc1ccc2[nH]nc(-c3cncc(O[C@H]4CNCCC45CC5)n3)c2c1 [Example 254, 3-(6-((4R)-6-azaspiro[2.5]oct-4-yloxy)-2-pyrazinyl)-1H-indazole-5-carbonitrile]
IC50 ([1]; Pim2_IC50 (uM)): > 1 µM | IC50 [2]: 364 nM

C#Cc1ccccc1-c1ccc2[nH]nc(-c3cncc(O[C@H]4CNCCC45CC5)n3)c2c1 [Example 266, 3-(6-((4R)-6-azaspiro[25]oct-4-yloxy)-2-pyrazinyl)-5-(2-ethynylphenyl)-1H-indazole bis(2,2,2-trifluoroacetate)]
IC50 ([1]; read-out: Pim2_IC50): 0.044 µM | IC50 [2]: 13 nM

C=C(Cl)c1ccccc1-c1ccc2[nH]nc(-c3cncc(O[C@H]4CNCCC45CC5)n3)c2c1 [Example 267, 3-(6-((4R)-6-azaspiro[25]oct-4-yloxy)-2-pyrazinyl)-5-(2-(1-chloroethenyl)phenyl)-1H-indazole bis(2,2,2-trifluoroacetate)]
IC50 ([1]; read-out: Pim2_IC50): 0.044 µM | IC50 [2]: 30 nM

CC(=O)c1ccc2[nH]nc(-c3cncc(O[C@H]4CNCCC45CC5)n3)c2c1 [Example 268, 1-(3-(6-((4R)-6-azaspiro[25]oct-4-yloxy)-2-pyrazinyl)-1H-indazol-5-yl)ethanone 2,2,2-trifluoroacetate]
IC50 ([1]; read-out: Pim2_IC50): 0.146 µM | IC50 [2]: 105 nM

OCCc1ccc2[nH]nc(-c3cncc(O[C@H]4CNCCC45CC5)n3)c2c1 [Example 270, 2-(3-(6-((4R)-6-azaspiro[25]oct-4-yloxy)-2-pyrazinyl)-1H-indazol-5-yl)ethanol hydrochloride]
IC50 ([1]; read-out: Pim2_IC50): 0.166 µM | IC50 [2]: 46 nM

CC(CO)c1ccc2c(c1)c(-c1cncc(O[C@H]3CNCCC34CC4)n1)nn2C (stereo partly drawn) [Example 271, 2-(3-(6-((4R)-6-azaspiro[25]oct-4-yloxy)-2-pyrazinyl)-1-methyl-1H-indazol-5-yl)-1-propanol]
IC50 ([1]; read-out: Pim2_IC50): 0.2 µM | IC50 [2]: 159 nM

c1cc2[nH]nc(-c3cncc(O[C@H]4CNCCC45CC5)n3)c2cc1-c1cncc(C2CC2)n1 [Example 275, 3-(6-((4R)-6-azaspiro[2.5]oct-4-yloxy)-2-pyrazinyl)-5-(6-cyclopropyl-2-pyrazinyl)-1H-indazole]
IC50 ([1]; read-out: Pim2_IC50): 0.099 µM | IC50 [2]: 9 nM

COc1cc(-c2c[nH]c3ccc(-c4c(F)cccc4F)cc23)nc(N2CCC(N)CC2)n1 [Example 276, 1-(4-(5-(2,6-difluorophenyl)-1H-indol-3-yl)-6-methoxypyrimidin-2-yl)piperidin-4-amine]
IC50 ([1]; read-out: Pim2_IC50): 0.929 µM | IC50 [2]: 344 nM

COc1cc(-c2c[nH]c3ccc(-c4c(F)cccc4F)cc23)nc(N[C@@H]2CCCNC2)n1 [Example 278, (R)-4-(5-(2,6-difluorophenyl)-1H-indol-3-yl)-6-methoxy-N-(piperidin-3-yl)pyrimidin-2-amine]
IC50 ([1]; read-out: Pim2_IC50): 0.7 µM | IC50 [2]: 565 nM

CC(C)Oc1cncc(-c2ccc3[nH]cc(-c4nnc(N5CCC(N)CC5)o4)c3c2)n1 [Example 280, 1-(5-(5-(6-isopropoxypyrazin-2-yl)-1H-indol-3-yl)-1,3,4-oxadiazol-2-yl)piperidin-4-amine]
IC50 ([1]; read-out: Pim2_IC50): 0.161 µM | IC50 [2]: 22 nM

CC(C)Oc1cncc(-c2ccc3[nH]cc(-c4nn(C(C)C)c(=O)o4)c3c2)n1 [Example 281, 5-(5-(6-isopropoxypyrazin-2-yl)-1H-indol-3-yl)-3-isopropyl-1,3,4-oxadiazol-2(3H)-one]
IC50 ([1]; read-out: Pim2_IC50): 0.597 µM | IC50 [2]: 70 nM

CN(C)C(=O)c1ccc2[nH]nc(-c3ccnc(N4CCC(N)CC4)n3)c2c1 [Example 284, 3-(2-(4-aminopiperidin-1-yl)pyrimidin-4-yl)-N,N-dimethyl-1H-indazole-5-carboxamide]
IC50 ([1]; read-out: Pim2_IC50): > 1 µM | IC50 [2]: 839 nM

c1cnc(N2CCOCC2)c(-c2ccc3[nH]cc(-c4cncc(O[C@@H]5CCCNC5)n4)c3c2)c1 [Example 338]
IC50 [2]: 69 nM

CC(C)Oc1cncc(-c2ccc3[nH]cc(-c4nnc(N5CCC[C@@H](N)C5)o4)c3c2)n1 [Example 525]
IC50 [2]: 70 nM
